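Following 48 hours of exposure in 96-well plates, responses at five concentrations were used to interpolate endpoints linearly. GI50 is the concentration that inhibits growth by half.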 Active and inactive are the calls of the source. Cut-off read from the data, not from the text of the source: active = GI50 up to about 1.1 µM and inactive = higher.
Experiments:
Assay in all cases: growth of human tumour cells (NCI), 48 h
[1] = system: NCI-H460
[2] = system: SR
[3] = system: HCT-116
[4] = system: EKVX
[5] = system: HOP-92
[6] = system: CCRF-CEM
[7] = system: M14
[8] = system: IGROV-1
[9] = system: XF498
[10] = system: ACHN
[11] = system: KM12
[12] = system: UO-31
[13] = system: COLO 205
[14] = system: A549
[15] = system: MDA-N
[16] = system: MCF7
[17] = system: MDA-MB-231
[18] = system: OVCAR-4
[19] = system: NCI-H522
[20] = system: DMS-114

Row | SMILES | GI50 [1] | GI50 [2] | GI50 [3] | GI50 [4] | GI50 [5] | GI50 [6] | GI50 [7] | GI50 [8] | GI50 [9] | GI50 [10] | GI50 [11] | GI50 [12] | GI50 [13] | GI50 [14] | GI50 [15] | GI50 [16] | GI50 [17] | GI50 [18] | GI50 [19] | GI50 [20]
1 | COc1cc2c(cc1OC)C(C1(O)CCCCC1)NCC2 (configuration not stated) | > 100 µM (inactive) | > 100 µM (inactive) | > 100 µM (inactive) | > 100 µM (inactive) | > 100 µM (inactive) | > 100 µM (inactive) | > 100 µM (inactive) | > 100 µM (inactive) | > 100 µM (inactive) | > 100 µM (inactive) | > 100 µM (inactive) | > 100 µM (inactive) | > 100 µM (inactive) |  |  |  |  |  |  | 
2 | CC(C)(C)OC(=O)NCC(=O)NC1c2ccsc2/C(=N/O)[C@H]1O (some centres not stated) | > 100 µM (inactive) | > 100 µM (inactive) | > 100 µM (inactive) | > 100 µM (inactive) | 7.36 µM (inactive) | > 100 µM (inactive) | > 100 µM (inactive) | > 100 µM (inactive) |  |  |  | > 100 µM (inactive) | > 100 µM (inactive) | > 100 µM (inactive) | > 100 µM (inactive) | > 100 µM (inactive) | > 100 µM (inactive) | > 100 µM (inactive) |  | 
3 | O=C1c2ccccc2OCC12OC21C=CC(Cl)=CC1 (configuration not stated) | 20.3 µM (inactive) | 2.07 µM (inactive) | 18.9 µM (inactive) | 18.7 µM (inactive) | 36.1 µM (inactive) |  | 33.5 µM (inactive) | 42.9 µM (inactive) |  | 38.5 µM (inactive) | 17.6 µM (inactive) | 29.6 µM (inactive) | 18 µM (inactive) | 18.6 µM (inactive) | 17 µM (inactive) | 33.4 µM (inactive) | 22 µM (inactive) | 12.4 µM (inactive) |  | 
4 | COc1cc(Cc2ccc3c(c2C#N)N(C)c2ccccc2S3)cc(OC)c1OC | 52.2 µM (inactive) | 6.14 µM (inactive) | 13.9 µM (inactive) | 40.8 µM (inactive) | 48.5 µM (inactive) | 39.3 µM (inactive) | > 100 µM (inactive) | > 100 µM (inactive) | 30.1 µM (inactive) | 41.4 µM (inactive) | > 100 µM (inactive) | 30.9 µM (inactive) | 36.9 µM (inactive) | 9.4 µM (inactive) |  |  |  | > 100 µM (inactive) | 34.7 µM (inactive) | 14.6 µM (inactive)
5 | O=C(NO)c1coc2ccccc2c1=O |  |  |  | > 100 µM (inactive) |  | > 100 µM (inactive) | 67.9 µM (inactive) | > 100 µM (inactive) |  | 23.7 µM (inactive) | > 100 µM (inactive) | 86.9 µM (inactive) | 39.4 µM (inactive) | > 100 µM (inactive) |  |  |  | > 100 µM (inactive) | > 100 µM (inactive) | 82 µM (inactive)
6 | CS(=O)(=O)C(C#N)c1nc2ccccc2nc1Cl (configuration not stated) | > 30.5 µM (inactive) | > 100 µM (inactive) | > 100 µM (inactive) | > 100 µM (inactive) | > 100 µM (inactive) | > 94 µM (inactive) | > 100 µM (inactive) | > 66.5 µM (inactive) | > 100 µM (inactive) | > 100 µM (inactive) | > 34.4 µM (inactive) | > 100 µM (inactive) | > 100 µM (inactive) | > 100 µM (inactive) | > 100 µM (inactive) | > 100 µM (inactive) | > 100 µM (inactive) | > 73.5 µM (inactive) | > 53.7 µM (inactive) | > 100 µM (inactive)
7 | CC(=C/c1ccccc1)/C=C1/NC(=S)N(/C=C2\C(=O)Oc3ccccc3C2=O)C1=O | 30.5 µM (inactive) | 38.1 µM (inactive) | 41.9 µM (inactive) | 27.9 µM (inactive) | 7.78 µM (inactive) | 33.8 µM (inactive) | 54 µM (inactive) |  |  | 46 µM (inactive) | 27.5 µM (inactive) |  | 36.7 µM (inactive) | 42.2 µM (inactive) | 96.6 µM (inactive) | 39.7 µM (inactive) | 45.9 µM (inactive) | 34.9 µM (inactive) | 22.7 µM (inactive) | 
8 | CN(C)c1nc(N(C)C)nc(N(C)CN(C)c2ccccc2)n1 | > 100 µM (inactive) |  | > 100 µM (inactive) |  |  | > 100 µM (inactive) |  | > 100 µM (inactive) | > 100 µM (inactive) | > 100 µM (inactive) | > 100 µM (inactive) | > 100 µM (inactive) |  | > 100 µM (inactive) |  |  |  | > 100 µM (inactive) | > 100 µM (inactive) | 63.5 µM (inactive)
9 | Cc1cc(NS(=O)(=O)c2ccc(NC(=O)c3cccc4c(Nc5ccc(S(N)(=O)=O)cc5)c5ccccc5nc34)cc2)no1 | > 100 µM (inactive) | 80.9 µM (inactive) | > 100 µM (inactive) | 96.8 µM (inactive) |  | 85.9 µM (inactive) | > 100 µM (inactive) |  | 59.7 µM (inactive) | > 100 µM (inactive) | 57 µM (inactive) | 35.6 µM (inactive) |  |  |  |  |  | > 100 µM (inactive) | 41.6 µM (inactive) | > 100 µM (inactive)
10 | Cc1ccccc1-c1nc2c(C(=O)NCCN(C)C)cccc2[nH]1 | 30.2 µM (inactive) |  | 29.6 µM (inactive) | > 100 µM (inactive) | 20.6 µM (inactive) | 27 µM (inactive) |  | 58.5 µM (inactive) | 39.7 µM (inactive) |  | 52.8 µM (inactive) | 20 µM (inactive) | 18.5 µM (inactive) | 39.4 µM (inactive) |  | 41 µM (inactive) |  | 49.1 µM (inactive) | 59.3 µM (inactive) | 47.5 µM (inactive)
11 | O=C1OC(c2ccc(O)c(F)c2)(c2ccc(O)c(F)c2)c2cccc3cccc1c23 | > 25 µM (inactive) | 8.04 µM (inactive) | > 25 µM (inactive) | 5.12 µM (inactive) | > 25 µM (inactive) | > 25 µM (inactive) | > 25 µM (inactive) | > 25 µM (inactive) |  | > 25 µM (inactive) | > 25 µM (inactive) | > 25 µM (inactive) | 1.26 µM (inactive) | > 25 µM (inactive) | 15.6 µM (inactive) | 1.79 µM (inactive) | > 25 µM (inactive) | 0.0601 µM (active) |  | 
12 | NC(=O)Oc1ccccc1 [CARBAMIC ACID PHENYL ESTER] | > 100 µM (inactive) | > 100 µM (inactive) | > 100 µM (inactive) |  | > 100 µM (inactive) | > 100 µM (inactive) | > 100 µM (inactive) |  |  | > 100 µM (inactive) | > 100 µM (inactive) | > 100 µM (inactive) | > 100 µM (inactive) | > 100 µM (inactive) | > 100 µM (inactive) | > 100 µM (inactive) | > 100 µM (inactive) | > 100 µM (inactive) | > 100 µM (inactive) | 
